# From publication PMC12481569, “Novltex: A New Class of Antibiotics with Potent Activity against Multidrug-Resistant Bacterial Pathogens–Design, Synthesis, and Biological Evaluation” (Journal of Medicinal Chemistry, 2025)
# Positions of bridges follow the written chain, without caps; N, C: chain ends. Non-standard residues stand in square brackets, D forms with d. Residues, ends and D or L forms follow the SMILES beside them. d(aIle) = CC[C@H](C)[C@@H](N)C(=O)O; dChg = N[C@@H](C(=O)O)C1CCCCC1
# Key:
# Assay in all cases: microbe, parasite or virus in culture
# MRSA ATCC 33591 = assay type: cell-based, Staphylococcus aureus; details: for fold decrease in antibacterial activity (MIC) compared to analogue 12: MRSA ATCC 33591; for MIC against MRSA ATCC 33591: 24 h, two independent duplicates
# Method: (§1) MICs were performed as previously reported 4. For MIC testing all peptides were dissolved in DMSO.
# Bacterial cultures were grown overnight on Mueller-Hinton Agar (MHA) plates and adjusted to a final inoculum of 10^5 – 10^6 CFU/mL. 100 µl of ino culum in Meuller -Hinton broth (MHB) was mixed with equal volume of peptides (dissolved in MHB) at 2x their concentration in a 96 well plate . For daptomycin MIC determination, the same protocol was followed with the addition of 50 mg/L calcium chloride to the medium. MIC values were determined in the media contain ing polysorbate 80 (0.002%, v/v) to prevent non -specific adsorption of the peptides to plastic surfaces. The final peptides concentrations ranged from 0.0625 – 32 µg/mL. The 96 well plates were then incubated at 37 °C for 24 h. All the experiments were performed in two independent duplicates and the MIC was determined as the lowest concentration in which no visible growth was observed. […]
# [1] = test system: Multidrug-Resistant (MDR) E. faecium; details: MHB, 0.002% polysorbate 80, 37 °C, 24 h, daptomycin with 50 mg/L calcium chloride
# Method: (§2) We further evaluated analogue 12 against multidrug-resistant (MDR) strains of S. aureus (acquired from the NARSA collection) and MDR E. faecium (acquired from International Health Management Associates, IHMA, Europe Sarl), comparing its activity to various classes of clinically used antibiotics (Table ).
# as §1
# (§3) Bacterial cultures were grown overnight on Mueller-Hinton Agar (MHA) plates and adjusted to a final inoculum of 10^5 – 10^6 CFU/mL. 100 µl of ino culum in Meuller -Hinton broth (MHB) was mixed with equal volume of peptides (dissolved in MHB) at 2x their concentration in a 96 well plate . For daptomycin MIC determination, the same protocol was followed with the addition of 50 mg/L calcium chloride to the medium. MIC values were determined in the media contain ing polysorbate 80 (0.002%, v/v) to prevent non -specific adsorption of the peptides to plastic surfaces. The final peptides concentrations ranged from 0.0625 – 32 µg/mL. The 96 well plates were then incubated at 37 °C for 24 h. All the experiments were performed in two independent duplicates and the MIC was determined as the lowest concentration in which no visible growth was observed.
# (§4) Antibiotics MIC break points ( µg/mL)
# (§5) Table. S4: Susceptibility cut-off values (MIC breakpoints) for various clinical antibiotics. […]
# [2] = test system: Multidrug-Resistant (MDR) S. aureus; details: MHB, 0.002% polysorbate 80, 37 °C, 24 h, daptomycin with 50 mg/L calcium chloride
# Method: as §2, §1, §3, §4, §5
# [3] = Table 2, MHB with 0.002% polysorbate 80, 37 °C
# [4] = broth dilution in MHB with 0.002% v/v polysorbate 80, inoculum 10^5-10^6 CFU/mL, 37 °C, no visible growth, Table 1
molecule,measurement,setting,value
"CC[C@H](C)[C@@H](NC(=O)[C@@H](N)Cc1ccccc1)C(=O)N[C@H](CCCCN)C(=O)N[C@@H](CO)C(=O)N[C@H]1C(=O)N[C@@H](C)C(=O)N[C@@H](CC(C)C)C(=O)N[C@@H](CC(C)C)C(=O)O[C@H]1C [analogue 16, Leu2 D-allo-Ile–Novltex] (H-F[d(aIle)][dK]S[dT]ALL; ester 5-C)",fold decrease in antibacterial activity (MIC) compared to analogue 12,MRSA ATCC 33591,64 fold
same,MIC against MRSA ATCC 33591,MRSA ATCC 33591; [3],16 µg/mL
CC(C)C[C@H](NC(=O)[C@H](N)Cc1ccccc1)C(=O)N[C@H](CCCCN)C(=O)N[C@@H](CO)C(=O)N[C@H]1C(=O)N[C@@H](C)C(=O)N[C@@H](CC(C)C)C(=O)N[C@@H](CC(C)C)C(=O)O[C@H]1C [analogue 5],MIC against MRSA ATCC 33591,MRSA ATCC 33591; [4],> 32 µg/mL
"CC(C)C[C@@H]1NC(=O)[C@H](C)NC(=O)[C@H](NC(=O)[C@H](CO)NC(=O)[C@@H](CCCCN)NC(=O)[C@@H](Cc2ccccc2)NC(=O)[C@@H](N)Cc2ccccc2)[C@H](C)OC(=O)[C@H](CC(C)C)NC1=O [analogue 14, Leu2Phe–Novltex] (H-F[dF][dK]S[dT]ALL; ester 5-C)",MIC against MRSA ATCC 33591,MRSA ATCC 33591; [3],8 µg/mL
CC(C)C[C@@H]1NC(=O)[C@H](C)NC(=O)[C@H](NC(=O)[C@H](CO)NC(=O)[C@@H](CCCCN)NC(=O)[C@@H](CC(C)C)NC(=O)[C@@H](N)Cc2ccccc2)[C@H](C)OC(=O)[C@H](CC(C)C)NC1=O [analogue 4],MIC against MRSA ATCC 33591,MRSA ATCC 33591; [4],2 to 4 µg/mL
same,MIC against MRSA ATCC 33591,"MRSA ATCC 33591; broth dilution in MHB with 0.002% v/v polysorbate 80, inoculum 10^5-10^6 CFU/mL, 37 °C, no visible growth, Table 1, listed as Novltex analogue 4",4 µg/mL
CC[C@H](C)[C@@H]1NC(=O)[C@H](CC(C)C)NC(=O)[C@H](C)NC(=O)[C@H](NC(=O)[C@H](CO)NC(=O)[C@@H](CCCCN)NC(=O)[C@@H](CC(C)C)NC(=O)[C@@H](N)Cc2ccccc2)[C@H](C)OC1=O [analogue 10] (H-F[dL][dK]S[dT]ALI; ester 5-C),MIC against MRSA ATCC 33591,MRSA ATCC 33591; [4],8 µg/mL
CC(C)C[C@@H]1NC(=O)[C@@H](CC(C)C)NC(=O)[C@H](C)NC(=O)[C@@H](NC(=O)[C@H](CO)NC(=O)[C@@H](CCCCN)NC(=O)[C@@H](CC(C)C)NC(=O)[C@@H](N)Cc2ccccc2)[C@@H](C)OC1=O [analogue 1],MIC against MRSA ATCC 33591,MRSA ATCC 33591; [4],8 µg/mL
CC(C)C[C@@H]1NC(=O)[C@H](C)NC(=O)[C@H](NC(=O)[C@H](CO)NC(=O)[C@H](CCCCN)NC(=O)[C@H](CC(C)C)NC(=O)[C@@H](N)Cc2ccccc2)[C@H](C)OC(=O)[C@H](CC(C)C)NC1=O [analogue 8],MIC against MRSA ATCC 33591,MRSA ATCC 33591; [4],> 32 µg/mL
CC(C)C[C@@H]1NC(=O)[C@@H](CC(C)C)NC(=O)[C@H](C)NC(=O)[C@H](NC(=O)[C@H](CO)NC(=O)[C@@H](CCCCN)NC(=O)[C@@H](CC(C)C)NC(=O)[C@@H](N)Cc2ccccc2)[C@H](C)OC1=O [analogue 2],MIC against MRSA ATCC 33591,MRSA ATCC 33591; [4],32 µg/mL
Clovibactin,"MIC, Enterococcus faecium 1563254",[1]; MDR clinical isolate 1563254,0.063 µg/mL
same,"MIC, Enterococcus faecium 1581582",[1]; MDR clinical isolate 1581582,0.25 µg/mL
same,"MIC, Enterococcus faecium 1766686",[1]; MDR clinical isolate 1766686,0.25 µg/mL
same,"MIC, Staphylococcus aureus NR 45914",[2]; MDR strain NR 45914,0.063 µg/mL
same,"MIC, Staphylococcus aureus NR 45926",[2]; MDR strain NR 45926,0.063 µg/mL
same,"MIC, Staphylococcus aureus NR 45930",[2]; MDR strain NR 45930,0.25 µg/mL
same,"MIC, Staphylococcus aureus NR 46062",[2]; MDR strain NR 46062,0.063 µg/mL
"CC(C)C[C@@H]1NC(=O)[C@H](C)NC(=O)[C@H](NC(=O)[C@H](CO)NC(=O)[C@@H](CCCCN)NC(=O)[C@H](NC(=O)[C@@H](N)Cc2ccccc2)C2CCCCC2)[C@H](C)OC(=O)[C@H](CC(C)C)NC1=O [analogue 11, Leu2Chg–Novltex] (H-F[dChg][dK]S[dT]ALL; ester 5-C)",fold decrease in antibacterial activity (MIC) compared to analogue 12,MRSA ATCC 33591,32 fold
same,MIC against MRSA ATCC 33591,MRSA ATCC 33591; [3],8 µg/mL
